# Assay results: patent US10167262B2, “Herbicidal substituted 3-arylpyrazoles” (FMC CORPORATION, priority 2014, dated 2019)
# Legend:
# Assay type in all cases: in vivo
# [1] = test system: johnsongrass (Sorghum halepense); assay: Test C pre-/postemergence greenhouse test, plant response rating 0-100; conditions: Postemergence; for Plant response rating, Johnsongrass: scale 0 to 100
# Method in brief: (§1)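 Scores run from 0, no effect, to 100, complete control, assigned by eye after treated plants and controls spent 13 to 15 days in a greenhouse. Soil-applied treatment went onto freshly sown seed in loam and sand; foliar treatment hit seedlings at the 1- to 4-leaf stage.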
# [2] = test system: velvetleaf (Abutilon theophrasti); assay: as above
# Method in brief: as §1
# [3] = test system: lambsquarters (Chenopodium album); assay: as above; conditions: Postemergence; for Plant response rating, Lambsquarters: scale 0 to 100
# Method in brief: as §1
# [4] = test system: morningglory (Ipomoea coccinea); assay: as above; conditions: Postemergence; for Plant response rating, Morningglory: scale 0 to 100
# Method in brief: as §1
# [5] = test system: morningglory (Ipomoea spp.); assay: Test A pre-/postemergence greenhouse herbicide test, visual injury rating 0-100
# Method in brief: (§2)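 Directed soil spray (pre) and foliar spray (post, 1–2 leaf) of solvent/surfactant-formulated compound; greenhouse ~10 d; visual injury 0–100 vs untreated controls.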
# [6] = test system: large (Lg) crabgrass (Digitaria sanguinalis); assay: as above
# Method in brief: as §2
# [7] = test system: velvetleaf (Abutilon theophrasti); assay: as above
# Method in brief: as §2
# [8] = test system: wheat (Triticum aestivum); assay: as above
# Method in brief: as §2
# [9] = test system: giant foxtail (Setaria faberii); assay: as above
# Method in brief: as §2
# corn (Zea mays) = assay: as above
# Method in brief: as §2
# [10] = test system: pigweed (Amaranthus retroflexus); assay: as above
# Method in brief: as §2
# [11] = test system: barnyardgrass (Echinochloa crus-galli); assay: as above
# Method in brief: as §2
smiles,measurement,setting,value
O=C(c1ccccc1)c1cn(S(=O)(=O)C(F)(F)F)nc1-c1cc(Cl)cc(Cl)c1 [Compound 2],"Plant response rating (0 to 100), Johnsongrass",[1]; 62 g ai/ha,0
same,"Plant response rating (0 to 100), Johnsongrass",[1]; 125 g ai/ha,0
same,"Plant response rating, Johnsongrass",[1]; 250 g ai/ha,0
same,"Plant response rating, Johnsongrass",[1]; 500 g ai/ha,0
same,"Plant response rating (0 to 100), Velvetleaf","[2]; Postemergence, 62 g ai/ha",75
same,"Plant response rating (0 to 100), Velvetleaf","[2]; Postemergence, 125 g ai/ha",75
same,"Plant response rating, Velvetleaf","[2]; Postemergence, 250 g ai/ha, scale 0 to 100",80
same,"Plant response rating, Velvetleaf","[2]; Postemergence, 500 g ai/ha, scale 0 to 100",85
same,"Plant response rating, Velvetleaf","[2]; Preemergence, 0 to 100 scale (0 no effect, 100 complete control), rate 500 g ai/ha per head r3, sub-head of this section not shown",35
same,"Plant response rating (0 to 100), Lambsquarters",[3]; 62 g ai/ha,85
same,"Plant response rating (0 to 100), Lambsquarters",[3]; 125 g ai/ha,85
same,"Plant response rating, Lambsquarters",[3]; 250 g ai/ha,85
same,"Plant response rating, Lambsquarters",[3]; 500 g ai/ha,90
same,"Plant response rating (0 to 100), Morningglory",[4]; 62 g ai/ha,0
same,"Plant response rating (0 to 100), Morningglory",[4]; 125 g ai/ha,0
same,"Plant response rating, Morningglory",[4]; 250 g ai/ha,0
same,"Plant response rating, Morningglory",[4]; 500 g ai/ha,10
same,"Plant response rating (0 to 100 scale), Morningglory","[5]; Postemergence, 125 g ai/ha",0
same,"Plant response rating (0 to 100 scale), Morningglory","[5]; Postemergence, 500 g ai/ha",0
same,"Morningglory plant response rating (0 = no effect, 100 = complete control)","[5]; Preemergence, 125 g ai/ha",0
same,"Plant response rating (0 to 100 scale), Morningglory","[5]; Preemergence, 500 g ai/ha",0
same,"Plant response rating (0 to 100 scale), Crabgrass, Large","[6]; Postemergence, 125 g ai/ha",0
same,"Plant response rating (0 to 100 scale), Crabgrass, Large","[6]; Postemergence, 500 g ai/ha",0
same,"Crabgrass, Large plant response rating (0 = no effect, 100 = complete control)","[6]; Preemergence, 125 g ai/ha",0
same,"Plant response rating (0 to 100 scale), Crabgrass, Large","[6]; Preemergence, 500 g ai/ha",0
same,"Plant response rating (0 to 100 scale), Velvetleaf","[7]; Postemergence, 125 g ai/ha",90
same,"Plant response rating (0 to 100 scale), Velvetleaf","[7]; Postemergence, 500 g ai/ha",100
same,"Velvetleaf plant response rating (0 = no effect, 100 = complete control)","[7]; Preemergence, 125 g ai/ha",20
same,"Plant response rating (0 to 100 scale), Velvetleaf","[7]; Preemergence, 500 g ai/ha",100
same,"Plant response rating (0 to 100 scale), Wheat","[8]; Postemergence, 125 g ai/ha",0
same,"Plant response rating (0 to 100 scale), Wheat","[8]; Postemergence, 500 g ai/ha",0
same,"Wheat plant response rating (0 = no effect, 100 = complete control)","[8]; Preemergence, 125 g ai/ha",0
same,"Plant response rating (0 to 100 scale), Wheat","[8]; Preemergence, 500 g ai/ha",0
same,"Plant response rating (0 to 100 scale), Foxtail, Giant","[9]; Postemergence, 125 g ai/ha",0
same,"Plant response rating (0 to 100 scale), Foxtail, Giant","[9]; Postemergence, 500 g ai/ha",0
same,"Foxtail, Giant plant response rating (0 = no effect, 100 = complete control)","[9]; Preemergence, 125 g ai/ha",0
same,"Plant response rating (0 to 100 scale), Foxtail, Giant","[9]; Preemergence, 500 g ai/ha",0
same,"Plant response rating (0 to 100 scale), Corn","corn (Zea mays); Postemergence, 125 g ai/ha",0
same,"Plant response rating (0 to 100 scale), Corn","corn (Zea mays); Postemergence, 500 g ai/ha",0
same,"Corn plant response rating (0 = no effect, 100 = complete control)","corn (Zea mays); Preemergence, 125 g ai/ha",0
same,"Plant response rating (0 to 100 scale), Corn","corn (Zea mays); Preemergence, 500 g ai/ha",0
same,"Plant response rating (0 to 100 scale), Pigweed","[10]; Postemergence, 125 g ai/ha",90
same,"Plant response rating (0 to 100 scale), Pigweed","[10]; Postemergence, 500 g ai/ha",100
same,"Pigweed plant response rating (0 = no effect, 100 = complete control)","[10]; Preemergence, 125 g ai/ha",50
same,"Plant response rating (0 to 100 scale), Pigweed","[10]; Preemergence, 500 g ai/ha",100
same,"Plant response rating (0 to 100 scale), Barnyardgrass","[11]; Postemergence, 125 g ai/ha",0
same,"Plant response rating (0 to 100 scale), Barnyardgrass","[11]; Postemergence, 500 g ai/ha",0
same,"Barnyardgrass plant response rating (0 = no effect, 100 = complete control)","[11]; Preemergence, 125 g ai/ha",0
same,"Plant response rating (0 to 100 scale), Barnyardgrass","[11]; Preemergence, 500 g ai/ha",0
